Measured values taken from ChEMBL document CHEMBL3244203, “Absolute configuration of glycerol derivatives. 4. Synthesis and pharmacological activity of chiral 2-alkylaminomethylbenzodioxans, competitive alpha-adrenergic antagonists” (J Med Chem, 1977).

Key:
[1] = Competitive antagonist activity at alpha-adrenergic receptor in New Zealand rabbit aorta assessed as inhibition of methoxamine-induced contraction incubated for 1 hr; format: tissue-based, Oryctolagus cuniculus
[2] = target: Adrenergic receptor alpha; test: Displacement of [3H]dihydroazapetine from alpha-adrenoreceptor in rat vas deferens

pKd [2]	SMILES	pA2 [1]
6.21	CCN(CC)C[C@H]1COc2ccccc2O1	5.6
	CCN(CC)C[C@@H]1COc2ccccc2O1	5.26
	c1ccc2c(c1)OC[C@H](CN1CCCCC1)O2	7.12
	c1ccc2c(c1)OC[C@@H](CN1CCCCC1)O2	5.86
6.85	c1ccc2c(c1)OC[C@H](CN1CCN(C[C@H]3COc4ccccc4O3)CC1)O2	7.66
6.25	c1ccc2c(c1)OC[C@@H](CN1CCN(C[C@@H]3COc4ccccc4O3)CC1)O2	6.38
	c1ccc2c(c1)OCC(CN1CCN(CC3COc4ccccc4O3)CC1)O2 (stereo not given)	7.53
